Assay results published in patent US10392391B2 (Vertex Pharmaceuticals Incorporated, priority 2012, dated 2019).
Like-named read-outs stand apart in the source and are kept apart here.

Tests used:
[1] = target: ATR kinase, in the presence of partner proteins ATRIP, CLK2 and TopBP1 (Homo sapiens (Human), UniProt Q13535); assay: ATR-complex inhibition assay (radioactive-phosphate incorporation); assay type: biochemical; details: Ki(app); 4 nM full-length ATR, 40 nM ATRIP, 40 nM CLK2, 600 nM TopBP1; 10 μM ATP; 25° C.
Chain of ATR kinase, in the presence of partner proteins ATRIP, CLK2 and TopBP1 (Q13535 whole entry): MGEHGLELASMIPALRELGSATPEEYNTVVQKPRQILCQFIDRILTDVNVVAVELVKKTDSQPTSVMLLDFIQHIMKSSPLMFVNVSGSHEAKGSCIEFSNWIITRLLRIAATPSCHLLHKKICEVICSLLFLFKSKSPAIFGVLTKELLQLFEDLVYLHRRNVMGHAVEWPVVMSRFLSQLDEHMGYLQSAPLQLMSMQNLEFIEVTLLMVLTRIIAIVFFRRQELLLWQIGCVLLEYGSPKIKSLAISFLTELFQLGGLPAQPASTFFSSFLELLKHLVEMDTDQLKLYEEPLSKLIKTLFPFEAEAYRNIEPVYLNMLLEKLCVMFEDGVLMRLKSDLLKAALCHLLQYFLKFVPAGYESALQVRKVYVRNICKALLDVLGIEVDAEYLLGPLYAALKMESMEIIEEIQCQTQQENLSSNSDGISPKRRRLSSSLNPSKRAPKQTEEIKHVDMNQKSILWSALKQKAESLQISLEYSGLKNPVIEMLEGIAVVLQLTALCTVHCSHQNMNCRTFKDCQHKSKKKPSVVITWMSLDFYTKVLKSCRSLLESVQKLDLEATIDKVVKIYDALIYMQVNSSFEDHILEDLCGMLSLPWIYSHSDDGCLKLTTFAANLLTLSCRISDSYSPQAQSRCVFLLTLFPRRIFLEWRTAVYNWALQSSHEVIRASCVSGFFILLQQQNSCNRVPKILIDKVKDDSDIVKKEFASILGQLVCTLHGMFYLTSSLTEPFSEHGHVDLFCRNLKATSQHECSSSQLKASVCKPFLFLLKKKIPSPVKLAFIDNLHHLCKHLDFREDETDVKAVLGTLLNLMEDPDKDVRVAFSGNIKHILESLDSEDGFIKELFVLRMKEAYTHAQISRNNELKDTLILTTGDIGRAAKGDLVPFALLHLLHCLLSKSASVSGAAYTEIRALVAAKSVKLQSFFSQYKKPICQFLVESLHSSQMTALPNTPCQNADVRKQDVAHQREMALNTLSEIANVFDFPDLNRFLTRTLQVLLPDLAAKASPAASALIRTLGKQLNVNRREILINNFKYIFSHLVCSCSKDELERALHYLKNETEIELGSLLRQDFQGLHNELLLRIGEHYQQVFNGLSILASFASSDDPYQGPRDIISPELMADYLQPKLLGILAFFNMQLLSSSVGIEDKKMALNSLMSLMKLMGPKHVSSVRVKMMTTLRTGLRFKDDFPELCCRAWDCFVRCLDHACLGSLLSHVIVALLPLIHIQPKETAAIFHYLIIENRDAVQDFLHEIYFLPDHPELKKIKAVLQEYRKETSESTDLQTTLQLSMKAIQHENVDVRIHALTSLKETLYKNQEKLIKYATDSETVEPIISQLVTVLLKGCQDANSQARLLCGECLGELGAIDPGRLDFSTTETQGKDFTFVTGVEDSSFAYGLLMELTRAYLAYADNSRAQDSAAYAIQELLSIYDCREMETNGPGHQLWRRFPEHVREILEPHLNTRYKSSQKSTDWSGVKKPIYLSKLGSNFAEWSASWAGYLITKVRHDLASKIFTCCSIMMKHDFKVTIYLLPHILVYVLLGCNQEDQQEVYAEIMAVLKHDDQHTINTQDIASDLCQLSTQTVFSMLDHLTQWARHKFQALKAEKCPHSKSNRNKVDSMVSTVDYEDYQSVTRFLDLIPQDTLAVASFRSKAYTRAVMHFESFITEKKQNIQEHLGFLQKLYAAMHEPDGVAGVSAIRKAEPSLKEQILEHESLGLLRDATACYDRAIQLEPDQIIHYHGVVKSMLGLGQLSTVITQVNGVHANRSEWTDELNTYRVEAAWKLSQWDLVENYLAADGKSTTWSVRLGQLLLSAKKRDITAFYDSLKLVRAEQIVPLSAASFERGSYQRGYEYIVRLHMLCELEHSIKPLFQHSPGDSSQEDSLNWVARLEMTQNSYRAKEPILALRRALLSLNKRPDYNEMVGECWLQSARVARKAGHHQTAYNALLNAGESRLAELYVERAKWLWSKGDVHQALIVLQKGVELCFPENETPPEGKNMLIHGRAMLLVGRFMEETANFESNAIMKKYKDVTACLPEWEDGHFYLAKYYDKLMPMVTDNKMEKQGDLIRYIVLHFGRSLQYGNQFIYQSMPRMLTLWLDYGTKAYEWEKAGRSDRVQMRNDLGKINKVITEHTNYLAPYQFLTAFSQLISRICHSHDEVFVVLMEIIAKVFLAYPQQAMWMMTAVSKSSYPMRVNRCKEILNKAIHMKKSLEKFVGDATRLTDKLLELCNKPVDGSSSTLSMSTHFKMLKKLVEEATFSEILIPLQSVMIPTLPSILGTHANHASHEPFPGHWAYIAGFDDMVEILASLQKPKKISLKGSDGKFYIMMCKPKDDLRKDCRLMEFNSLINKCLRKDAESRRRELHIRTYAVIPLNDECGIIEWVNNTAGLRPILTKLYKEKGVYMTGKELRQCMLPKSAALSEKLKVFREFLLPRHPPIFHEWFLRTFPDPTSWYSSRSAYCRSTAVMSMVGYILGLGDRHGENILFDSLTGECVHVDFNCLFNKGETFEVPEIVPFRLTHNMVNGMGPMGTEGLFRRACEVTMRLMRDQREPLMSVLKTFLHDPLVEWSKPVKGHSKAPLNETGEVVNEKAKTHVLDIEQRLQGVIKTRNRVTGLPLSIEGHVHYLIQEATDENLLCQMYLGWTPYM
Chain of ATR kinase, in the presence of partner proteins ATRIP, CLK2 and TopBP1 (Q8WXE1 whole entry partner): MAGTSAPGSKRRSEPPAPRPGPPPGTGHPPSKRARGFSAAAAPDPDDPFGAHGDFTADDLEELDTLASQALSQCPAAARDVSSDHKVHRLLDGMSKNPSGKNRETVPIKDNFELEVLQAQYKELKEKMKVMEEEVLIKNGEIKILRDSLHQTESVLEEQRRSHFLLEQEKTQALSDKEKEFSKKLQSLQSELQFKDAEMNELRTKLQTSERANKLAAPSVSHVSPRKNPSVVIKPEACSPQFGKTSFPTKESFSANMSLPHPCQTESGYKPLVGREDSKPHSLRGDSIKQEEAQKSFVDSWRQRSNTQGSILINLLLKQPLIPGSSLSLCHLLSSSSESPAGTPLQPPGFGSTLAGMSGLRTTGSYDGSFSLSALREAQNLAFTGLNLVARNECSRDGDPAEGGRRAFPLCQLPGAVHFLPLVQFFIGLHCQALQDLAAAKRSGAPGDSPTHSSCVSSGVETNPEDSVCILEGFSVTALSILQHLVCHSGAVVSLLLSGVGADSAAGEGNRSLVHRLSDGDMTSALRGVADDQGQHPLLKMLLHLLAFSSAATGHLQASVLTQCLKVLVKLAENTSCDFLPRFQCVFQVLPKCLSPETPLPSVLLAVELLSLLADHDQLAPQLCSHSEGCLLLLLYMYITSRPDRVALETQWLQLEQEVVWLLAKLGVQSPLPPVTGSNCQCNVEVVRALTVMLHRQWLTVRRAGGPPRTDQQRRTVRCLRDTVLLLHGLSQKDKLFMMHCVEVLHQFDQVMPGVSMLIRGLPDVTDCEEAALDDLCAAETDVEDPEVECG
Experimental: Compounds were screened for their ability to inhibit ATR kinase, in the presence of partner proteins ATRIP, CLK2 and TopBP1, using a radioactive-phosphate incorporation assay. Assays were carried out in a mixture of 50 mM Tris/HCl (pH 7.5), 10 mM MgCl2 and 1 mM DTT. Final substrate concentrations were 10 μM [g-33P]ATP (3.5 μCi 33P ATP/nmol ATP, Perkin Elmer, Massachusetts, USA) and 800 μM target peptide ([…]) (SEQ ID NO: 1); Isca Biochemicals, Cambridgeshire, UK).
Assays were carried out at 25° C. in the presence of 4 nM full-length ATR, 40 nM full-length ATRIP, 40 nM full-length CLK2 and 600 nM TopBP1 (A891-S1105). An enzyme stock buffer solution was prepared containing all of the reagents listed above, with the exception of target peptide, ATP and the test compound of interest. This enzyme stock was pre-incubated for 30 minutes at 25° C. 8.5 μL of the enzyme stock solution was placed in a 96-well plate followed by addition of 5 μl of target peptide and 2 μL of DMSO stock containing serial dilutions of the test compound (typically starting from a final concentration of 1.5 μM with 2.5-fold serial dilutions) in duplicate (final DMSO concentration 7%). The plate was pre-incubated for 10 minutes at 25° C. and the reaction initiated by addition of 15 μL [g-33P]ATP (final concentration 10 μM).
The reaction was stopped after […] by the addition of 30 μL 0.3 M phosphoric acid containing 2 mM ATP. A phosphocellulose filter 96-well plate (Multiscreen HTS MAPHNOB50, Merck-Millipore, Massachusetts, USA) was pretreated with 100 μL 0.1 M phosphoric acid prior to the addition of 45 μL of the stopped assay mixture. The plate was washed with 5×200 μL 0.1 M phosphoric acid. After drying, 50 μL Optiphase ‘SuperMix’ liquid scintillation cocktail (Perkin Elmer, Massachusetts, USA) was added to the well prior to scintillation counting (Wallac 1450 Microbeta Liquid Scintillation Counter, Perkin Elmer, Massachusetts, USA).
After removing mean background values for all of the data points, Ki(app) data were calculated from non-linear regression analysis of the initial rate data using the Prism software package (GraphPad Prism version 6.0c for Macintosh, GraphPad Software Inc., San Diego, USA).
Compounds with a Cisplatin sensitization value of <0.02 μM are marked with “+++.” Compounds with a Ki value >0.02 μM but <0.2 μM are marked with “++.” Compounds with a Ki value >0.2 μM but <5 μM are marked with “+.”

[2] = target: ATR kinase (full-length ATR) (Homo sapiens (Human), UniProt Q13535); assay: ATR inhibition assay (radioactive-phosphate incorporation); assay type: biochemical
Chain of ATR kinase (full-length ATR) (Q13535 whole entry): as the sequence (Q13535 whole entry) above
Method in brief: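 Radiometric 33P incorporation by 5 nM full-length ATR into 800 μM target peptide with 10 μM [γ-33P]ATP, in 50 mM Tris/HCl pH 7.5, 10 mM MgCl2, 1 mM DTT, 7% DMSO, 25° C. Compound pre-incubated 10 minutes; reaction stopped after 24 hours, captured on phosphocellulose. Ki(app) from non-linear regression of initial rates.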

[3] = tested on: HCT116 colorectal cancer cells; assay: Cisplatin sensitization assay, 96 h cell viability (MTS); assay type: cell-based; details: 96 h MTS, concentration of compound required to reduce the IC50 of Cisplatin
Experimental: Compounds can be screened for their ability to sensitize HCT116 colorectal cancer cells to Cisplatin using a 96 h cell viability (MTS) assay. […] Compounds and Cisplatin are then both added simultaneously to the cell media in 2-fold serial dilutions from a top final concentration of 10 μM as a full matrix of concentrations in a final cell volume of 200 μl, and the cells are then incubated at 37° C. in 5% CO2. After 96 h, 40 μl of MTS reagent (Promega G358a) is added to each well and the cells are incubated for 1 h at 37° C. in 5% CO2.
Compounds with a Cisplatin sensitization value of <0.02 μM are marked with “+++.” Compounds with a Cisplatin sensitization value >0.02 μM but <0.2 μM are marked with “++.” Compounds with a Cisplatin sensitization value >0.2 μM but <5 μM are marked with “+.”

[4] = Ki(app), 5 nM full-length ATR, 10 μM ATP, 25° C.

Row | Ki [1] | Ki [2, 4] | Ki [2] | SMILES | Cisplatin Sensitization Assay [3]
1 | < 20 nM | 10 to 1000 nM | – | Cn1cncc1-c1c(F)cncc1NC(=O)c1c(N)nn2cc(F)cnc12 [I-C-79, 2-amino-6-fluoro-N-(5-fluoro-4-(1-methyl-1H-imidazol-5-yl)pyridin-3-yl)pyrazolo[1,5-a]pyrimidine-3-carboxamide] | –
2 | < 20 nM | 10 to 1000 nM | – | Nc1nn2cc(F)cnc2c1C(=O)Nc1cncc(F)c1N1CCN2C(=O)CC[C@@H]2C1 [I-N-186, (R)-2-amino-6-fluoro-N-(5-fluoro-4-(6-oxohexahydropyrrolo[1,2-a]pyrazin-2(1H)-yl)pyridin-3-yl)pyrazolo[1,5-a]pyrimidine-3-carboxamide] | –
3 | < 20 nM | 10 to 1000 nM | – | CN1CCN(C(=O)c2ccc(-c3ccncc3NC(=O)c3c(N)nn4cc(F)cnc34)cc2)CC1 [I-C-25, 2-amino-6-fluoro-N-(4-(4-(4-methylpiperazine-1-carbonyl)phenyl)pyridin-3-yl)pyrazolo[1,5-a]pyrimidine-3-carboxamide] | –
4 | < 20 nM | 10 to 1000 nM | – | Nc1nn2cc(F)cnc2c1C(=O)Nc1cnccc1N1CCN(C2COC2)CC1 [I-N-1, 2-amino-6-fluoro-N-(4-(4-(oxetan-3-yl)piperazin-1-yl)pyridin-3-yl)pyrazolo[1,5-a]pyrimidine-3-carboxamide] | –
5 | < 20 nM | 10 to 1000 nM | – | CN1CCN(C(=O)c2ccc(-c3c(F)cncc3NC(=O)c3c(N)nn4cc(F)cnc34)cc2)CC1 [I-C-43, 2-amino-6-fluoro-N-(5-fluoro-4-(4-(4-methylpiperazine-1-carbonyl)phenyl)pyridin-3-yl)pyrazolo[1,5-a]pyrimidine-3-carboxamide] | –
6 | < 20 nM | 10 to 1000 nM | – | Nc1nn2cc(F)cnc2c1C(=O)Nc1cncc(F)c1N1CCNCC1 [I-N-118, 2-amino-6-fluoro-N-(5-fluoro-4-(piperazin-1-yl)pyridin-3-yl)pyrazolo[1,5-a]pyrimidine-3-carboxamide] | –
7 | < 20 nM | 10 to 1000 nM | – | Cc1nnccc1-c1ccncc1NC(=O)c1c(N)nn2cc(F)cnc12 [I-C-31, 2-amino-6-fluoro-N-(4-(3-methylpyridazin-4-yl)pyridin-3-yl)pyrazolo[1,5-a]pyrimidine-3-carboxamide] | –
8 | < 20 nM | 10 to 1000 nM | – | CC(=O)N1CCN(c2c(F)cncc2NC(=O)c2c(N)nn3cc(F)cnc23)CC1 [I-N-275, N-(4-(4-acetylpiperazin-1-yl)-5-fluoropyridin-3-yl)-2-amino-6-fluoropyrazolo[1,5-a]pyrimidine-3-carboxamide] | –
9 | – | 10 to 1000 nM | – | CCN1CCN(c2ccncc2NC(=O)c2c(N)nn3cc(F)cnc23)CC1 [I-N-17, 2-amino-N-(4-(4-ethylpiperazin-1-yl)pyridin-3-yl)-6-fluoropyrazolo[1,5-a]pyrimidine-3-carboxamide] | –
10 | – | 10 to 1000 nM | – | Nc1nn2cc(F)cnc2c1C(=O)Nc1cnccc1N1CCC(C(=O)N2CCC2)CC1 [I-G-77, 2-amino-N-(4-(4-(azetidine-1-carbonyl)piperidin-1-yl)pyridin-3-yl)-6-fluoropyrazolo[1,5-a]pyrimidine-3-carboxamide] | –

Further lines, the compound ahead of its results:

Row | SMILES | Ki [1] | Ki [2, 4] | Ki [2] | Cisplatin Sensitization Assay [3]
11 | Nc1nn2cc(F)cnc2c1C(=O)Nc1cncc(F)c1N1CCC(C(=O)N2CCN3CCC2CC3)CC1 [I-G-7, N-(4-(4-(1,4-diazabicyclo[3.2.2]nonane-4-carbonyl)piperidin-1-yl)-5-fluoropyridin-3-yl)-2-amino-6-fluoropyrazolo[1,5-a]pyrimidine-3-carboxamide] | < 20 nM | – | 10 to 1000 nM | –
12 | Nc1nn2cc(F)cnc2c1C(=O)Nc1cncc(F)c1N1CCC(C(=O)N2CCN(C3COC3)CC2)CC1 [I-G-32, 2-amino-6-fluoro-N-[5-fluoro-4-[4-[4-(oxetan-3-yl)piperazine-1-carbonyl]-1-piperidyl]-3-pyridyl]pyrazolo[1,5-a]pyrimidine-3-carboxamide] | < 20 nM | 10 to 1000 nM | – | –
13 | CN1CCN(C(=O)C2CCN(c3c(F)cncc3NC(=O)c3c(N)nn4cc(F)cnc34)CC2)CC1 [I-G-4, 2-amino-6-fluoro-N-(5-fluoro-4-(4-(4-methylpiperazine-1-carbonyl)piperidin-1-yl)pyridin-3-yl)pyrazolo[1,5-a]pyrimidine-3-carboxamide] | < 20 nM | 10 to 1000 nM | – | –
14 | CN1CCN(S(=O)(=O)C2CCN(c3c(F)cncc3NC(=O)c3c(N)nn4cc(F)cnc34)CC2)CC1 [I-N-166, 2-amino-6-fluoro-N-(5-fluoro-4-(4-((4-methylpiperazin-1-yl)sulfonyl)piperidin-1-yl)pyridin-3-yl)pyrazolo[1,5-a]pyrimidine-3-carboxamide] | < 20 nM | 10 to 1000 nM | – | –
15 | Nc1nn2cc(F)cnc2c1C(=O)Nc1cncc(F)c1N1CCC(C(=O)N2CCNCC2)CC1 [I-G-12, 2-amino-6-fluoro-N-(5-fluoro-4-(4-(piperazine-1-carbonyl)piperidin-1-yl)pyridin-3-yl)pyrazolo[1,5-a]pyrimidine-3-carboxamide] | < 20 nM | 10 to 1000 nM | – | –
16 | COC1CN(C(=O)C2CCN(c3c(F)cncc3NC(=O)c3c(N)nn4cc(F)cnc34)CC2)C1 [I-G-21, 2-amino-6-fluoro-N-(5-fluoro-4-(4-(3-methoxyazetidine-1-carbonyl)piperidin-1-yl)pyridin-3-yl)pyrazolo[1,5-a]pyrimidine-3-carboxamide] | < 20 nM | 10 to 1000 nM | – | –
17 | Nc1nn2cc(F)cnc2c1C(=O)Nc1cncc(F)c1N1CCN(C2COC2)CC1 [I-N-13, 2-amino-6-fluoro-N-(5-fluoro-4-(4-(oxetan-3-yl)piperazin-1-yl)pyridin-3-yl)pyrazolo[1,5-a]pyrimidine-3-carboxamide] | < 20 nM | 10 to 1000 nM | – | –
18 | CNCCCN(C)C(=O)C1CCN(c2c(F)cncc2NC(=O)c2c(N)nn3cc(F)cnc23)CC1 [I-G-17] | – | 1000 to 5000 nM | – | + (Compounds with a Cisplatin sensitization value >0.2 μM but <5 μM are marked with “+.”)
19 | Nc1nn2cc(Cl)cnc2c1C(=O)Nc1cnccc1N1CCN(C2COC2)CC1 [I-N-58, 2-amino-6-chloro-N-(4-(4-(oxetan-3-yl)piperazin-1-yl)pyridin-3-yl)pyrazolo[1,5-a]pyrimidine-3-carboxamide] | < 20 nM | 10 to 1000 nM | – | –
20 | Nc1nn2cc(F)cnc2c1C(=O)Nc1cncc(F)c1N1CCC(C(=O)N2CCN3CCCC3C2)CC1 (stereo not shown) [I-G-10, 2-amino-6-fluoro-N-(5-fluoro-4-(4-(octahydropyrrolo[1,2-a]pyrazine-2-carbonyl)piperidin-1-yl)pyridin-3-yl)pyrazolo[1,5-a]pyrimidine-3-carboxamide] | – | 10 to 1000 nM | – | –
